From the supplement of paper PMC10307832

Assays:
Assay in all cases: relative viability (nuclei count vs DMSO), 5 days (fraction); higher = more cells survive
[1] = compound: C1/C(=C\C2=CC=CS2)/C(=O)/C(=C/C3=CC=CS3)/C1 + CC(=O)Nc1cccc(-n2c(=O)n(C3CC3)c(=O)c3c(Nc4ccc(I)cc4F)n(C)c(=O)c(C)c32)c1 [Trametinib] (partner 0.02 µM)
In short: (§1)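 Lung cancer cell lines in 1536-well plates got either a single drug or a fixed anchor-drug dose together with five library-drug doses (not always all listed) in √10 steps, by pin tool, on the day after seeding. Nuclei were counted after 5 days, and relative viability is the treated-to-vehicle ratio of nuclei counts. Values are medians of duplicate plates.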

[2] = compound: C1/C(=C\C2=CC=CS2)/C(=O)/C(=C/C3=CC=CS3)/C1 + Nc1nc2[nH]cc(CCc3ccc(C(=O)N[C@@H](CCC(=O)O)C(=O)O)cc3)c2c(=O)[nH]1 [Pemetrexed] (partner 0.2 µM)
In short: as §1

Lestaurtinib + Alpelisib = compound: C[C@]12O[C@H](C[C@]1(O)CO)n1c3ccccc3c3c4c(c5c6ccccc6n2c5c31)CNC4=O [Lestaurtinib] + Cc1nc(NC(=O)N2CCC[C@H]2C(N)=O)sc1-c1ccnc(C(C)(C)C(F)(F)F)c1 [Alpelisib] (partner 2 µM)
In short: as §1

[3] = compound: C[C@]12O[C@H](C[C@]1(O)CO)n1c3ccccc3c3c4c(c5c6ccccc6n2c5c31)CNC4=O [Lestaurtinib] + Nc1ncn([C@H]2C[C@H](O)[C@@H](CO)O2)c(=O)n1 [Decitabine] (partner 2 µM)
In short: as §1

Cell Line | relative viability ([1]; first compound 0.2 µM) | relative viability ([1]; first compound 0.6325 µM) | relative viability ([1]; first compound 2 µM) | relative viability ([1]; first compound 6.325 µM) | relative viability ([1]; first compound 20 µM) | relative viability ([2]; first compound 0.2 µM) | relative viability ([2]; first compound 0.6325 µM) | relative viability ([2]; first compound 2 µM) | relative viability ([2]; first compound 6.325 µM) | relative viability ([2]; first compound 20 µM) | relative viability (Lestaurtinib + Alpelisib; first compound 0.005 µM) | relative viability (Lestaurtinib + Alpelisib; first compound 0.01581 µM) | relative viability (Lestaurtinib + Alpelisib; first compound 0.05 µM) | relative viability (Lestaurtinib + Alpelisib; first compound 0.1581 µM) | relative viability (Lestaurtinib + Alpelisib; first compound 0.5 µM) | relative viability ([3]; first compound 0.005 µM) | relative viability ([3]; first compound 0.01581 µM) | relative viability ([3]; first compound 0.05 µM) | relative viability ([3]; first compound 0.1581 µM) | relative viability ([3]; first compound 0.5 µM)
LCLC-103H | 0.664 | 0.701 | 0.678 | 0.595 | 0.63 | 0.477 | 0.444 | 0.447 | 0.433 | 0.47 | 1.06 | 0.991 | 0.678 | 0.683 | 0.651 | 0.783 | 0.79 | 0.687 | 0.534 | 0.703
NCI-H460 | 0.158 | 0.305 | 0.163 | 0.0691 | 0.139 | 0.0622 | 0.0731 | 0.0616 | 0.0608 | 0.0583 | 0.477 | 0.406 | 0.222 | 0.198 | 0.0751 | 0.639 | 0.519 | 0.499 | 0.548 | 0.305
NCI-H1755 | 0.75 | 0.768 | 0.794 | 0.627 | 0.714 | 0.436 | 0.413 | 0.484 | 0.369 | 0.387 | 1 | 0.927 | 0.571 | 0.349 | 0.202 | 0.723 | 0.791 | 0.806 | 0.638 | 0.559
NCI-H358 | 0.124 | 0.134 | 0.148 | 0.133 | 0.132 | 0.213 | 0.207 | 0.171 | 0.191 | 0.177 | 0.656 | 0.601 | 0.343 | 0.266 | 0.202 | 0.219 | 0.212 | 0.15 | 0.12 | 0.144
NCI-H1734 | 0.825 | 0.575 | 0.658 | 0.578 | 0.626 | 0.439 | 0.433 | 0.457 | 0.37 | 0.426 | 0.732 | 0.689 | 0.569 | 0.377 | 0.304 | 0.56 | 0.499 | 0.442 | 0.444 | 0.253
EPLC-272H | 0.333 | 0.263 | 0.3 | 0.243 | 0.267 | 0.351 | 0.468 | 0.334 | 0.301 | 0.373 | 0.896 | 0.917 | 0.575 | 0.522 | 0.556 | 0.334 | 0.354 | 0.327 | 0.278 | 0.3
NCI-H2126 | 0.554 | 0.586 | 0.576 | 0.502 | 0.585 | 0.677 | 0.681 | 0.789 | 0.58 | 0.714 | 0.785 | 0.746 | 0.608 | 0.681 | 0.478 | 0.582 | 0.593 | 0.623 | 0.536 | 0.553
